Results on 59 molecules are retold here after patent US20190112316A1, “THIAZOLO[3,2-A] PYRIMIDINONE AND OTHER HETEROBICYCLIC PYRIMIDINONE COMPOUNDS FOR USE IN MEDICAL THERAPY” (priority 2015, published 2019).

In brackets after ≈: the same amount, converted by molar mass. Some results are limits rather than exact numbers.

Data set [1] is described as follows: Compound solubility in water. The format is physicochemical.
Data set [2] has as its target T1, glucocerebrosidase (Gcase) (Homo sapiens, UniProt P04062).
T1 construct: micellar solution containing 10 nM GCase and 100 nM saposin C (Enzo ALX-201-262-C050)
T1 sequence (P04062 40-536): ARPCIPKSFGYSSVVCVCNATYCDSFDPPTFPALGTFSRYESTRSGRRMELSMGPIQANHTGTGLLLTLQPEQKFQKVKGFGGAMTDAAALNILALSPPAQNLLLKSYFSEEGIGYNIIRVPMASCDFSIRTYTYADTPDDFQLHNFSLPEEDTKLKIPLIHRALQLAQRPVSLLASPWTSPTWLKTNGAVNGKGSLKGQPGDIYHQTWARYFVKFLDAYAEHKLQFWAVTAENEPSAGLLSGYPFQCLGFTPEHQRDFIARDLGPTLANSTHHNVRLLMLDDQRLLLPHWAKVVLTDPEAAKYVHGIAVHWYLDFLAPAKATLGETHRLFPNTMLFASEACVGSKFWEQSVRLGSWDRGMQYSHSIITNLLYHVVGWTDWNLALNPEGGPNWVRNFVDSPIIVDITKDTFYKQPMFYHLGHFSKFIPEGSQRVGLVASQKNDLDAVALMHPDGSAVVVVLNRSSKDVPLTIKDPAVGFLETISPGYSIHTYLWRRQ
Briefly: Glucocerebrosidase (Gcase) activation assay, 4-methylumbelliferyl-beta-D-glucopyranoside substrate, with saposin C. The data set is classed as biochemical. The following applies: for activation at 0.1 µM: read-out: Percent Gcase Activation 0.1 μM Test Compound; for activation at 1 µM: read-out: Percent Gcase Activation 1 μM Test Compound. As for the experimental part: A 484 μL aliquot of a 1.0 mg/mL solution of phosphatidylserine (PS) (Sigma P7769) in chloroform was evaporated under a stream of nitrogen for 1 hour. The lipid film was dissolved over 4 minutes of vigorous vortexing in 40 mL of 176 mM K2HPO4/50 mM citric acid (pH 4.7) containing 7.5 μL of triton X-100, resulting in a mixed micellar preparation with a composition of 0.32 mM triton and 0.37 mol % PS. 4-Methylumbelliferyl-beta-D-glucopyranoside (ACROS-337025000) was dissolved in the micellar solution to a final concentration of 2 mM for use as the reaction substrate.
Test compounds were diluted to the desired concentrations with dimethylsulfoxide (DMSO) from 10 mM stocks, and 0.41 μL of the DMSO compound mixture was added to 100 μL of micellar solution containing 10 nM GCase and 100 nM saposin C (Enzo ALX-201-262-C050). Pre-incubation was allowed to occur for 30 minutes at room temperature, after which the reaction was initiated by combining 25 μL of substrate solution with 25 μL of compound/GCase/saposin mixture. The reaction proceeded for 15 minutes at room temperature and was stopped by adding 150 μL of 1M glycine, pH 12.5. The endpoint of the reaction was monitored by measuring fluorescence intensity (excitation: 365 nm; emission: 440 nm) on a SpectraMax i3 instrument (Molecular Devices). Test compounds were screened at 1.0 and 0.1 μM final concentration, and subsequent 8-point dose response curves were obtained using 3-fold dilutions from a maximum final concentration of 5 μM.

In general, solubility refers to how much of the substance goes into solution per volume. `CCCCc1ccc(NC(=O)c2cnc3n(c2=O)CCS3)cc1` had a solubility in data set [1] of 0.2 µg/mL (≈ 0.607 µM). Besides, in data set [2], the activation at 0.1 µM lay within 5 to 20% and the activation at 1 µM is above 20%. Take `O=C(NC1CCOc2ccccc21)c1cnc2n(c1=O)CCS2` (stereo not shown): in data set [2], the activation at 0.1 µM was below 5% and the activation at 1 µM is 5 to 20%. On to `O=C(NC1CCC2(CCCCO2)CC1)c1cnc2n(c1=O)CCS2` (stereo not shown), for which the solubility in data set [1] turned out to be 29.5 µg/mL (≈ 84.4 µM). Also, in data set [2], the activation at 0.1 µM was below 5% and the activation at 1 µM was below 5%. Molecule `CCC(C)c1ccc(NC(=O)c2cnc3cccc(C)n3c2=O)cc1` (stereo not shown) gave a solubility in data set [1] of 1 µg/mL (≈ 2.98 µM). In addition, in data set [2], the activation at 0.1 µM lay within 5 to 20% and the activation at 1 µM was above 20%. The corresponding values for `Cc1cccc2ncc(C(=O)Nc3ccc4c(c3)OCCO4)c(=O)n12` are 0.7 µg/mL (≈ 2.08 µM), below 5% and 5 to 20%. On to `COCC#Cc1ccc(NC(=O)c2cnc3n(c2=O)CCS3)cc1`, for which, in data set [2], the activation at 0.1 µM was 5 to 20% and the activation at 1 µM lay in the range of 5 to 20%.

On to `CCCCC1CCC(NC(=O)c2cnc3cccc(C)n3c2=O)CC1` (stereo not shown), for which the concentration in solution in data set [1] (solubility) was 0.4 µg/mL (≈ 1.17 µM). For the same molecule, in data set [2], the activation at 0.1 µM was 5 to 20% and the activation at 1 µM was above 20%. The molecule `CCCCc1ccc(NC(=O)c2cnc3cccc(C)n3c2=O)cc1` came in with a solubility in data set [1] of 0.05 µg/mL (≈ 0.149 µM). In addition, in data set [2], the activation at 0.1 µM was 5 to 20% and the activation at 1 µM is above 20%. The matching figures for `CCc1ccc(CNC(=O)c2cnc3sccn3c2=O)cc1`: 17 µg/mL (≈ 54.2 µM), below 5% and 5 to 20%.

Take `CCC(C)c1ccc(NC(=O)c2cnc3c(C)cccn3c2=O)cc1` (stereo not shown): the concentration in solution in data set [1] (solubility) came to 0.5 µg/mL (≈ 1.49 µM). In data set [2], the activation at 0.1 µM was below 5% and the activation at 1 µM fell in the range of 5 to 20%. The corresponding values for `Cc1cccc2ncc(C(=O)NC3CCc4ccccc43)c(=O)n12` (stereo not shown) are 6.8 µg/mL (≈ 21.3 µM), below 5% and above 20%.

With `Cc1cccc2ncc(C(=O)Nc3ccc(C4CCCCC4)cc3)c(=O)n12`, the solubility in data set [1] came out at 0.2 µg/mL (≈ 0.553 µM). Further, in data set [2], the activation at 0.1 µM is below 5% and the activation at 1 µM was above 20%. `Cc1csc2ncc(C(=O)Nc3ccc(C(C)C)cc3)c(=O)n12` came in with a solubility in data set [1] of 0.5 µg/mL (≈ 1.53 µM). In data set [2], the activation at 0.1 µM is 5 to 20% and the activation at 1 µM was above 20%. `CCC(C)c1ccc(NC(=O)c2cnc3n(c2=O)CCS3)cc1` (stereo not shown) had a solubility in data set [1] of 0.3 µg/mL (≈ 0.911 µM). For the same molecule, in data set [2], the activation at 0.1 µM fell in the range of 5 to 20% and the activation at 1 µM is above 20%. `Cc1cccc2ncc(C(=O)Nc3ccc(-n4ccnc4)cc3)c(=O)n12`: the solubility in data set [1] worked out at 1.2 µg/mL (≈ 3.47 µM). Besides, in data set [2], the activation at 0.1 µM was below 5% and the activation at 1 µM fell in the range of 5 to 20%. `Cc1ccc(CNC(=O)c2cnc3scc(C)n3c2=O)cc1`: in data set [2], the activation at 1 µM is 5 to 20%. The molecule `CCC(C)c1ccc(NC(=O)c2cnc3ccccn3c2=O)cc1` (stereo not shown) gave a solubility in data set [1] of 0.3 µg/mL (≈ 0.933 µM). Moreover, in data set [2], the activation at 0.1 µM was below 5% and the activation at 1 µM lay in the range of 5 to 20%. The matching figures for `O=C(NC1CCCc2ccccc21)c1cnc2n(c1=O)CCS2` (stereo not shown): 7.1 µg/mL (≈ 21.7 µM), below 5% and above 20%. For `CCCCC1CCC(NC(=O)c2cnc3n(c2=O)CCS3)CC1` (stereo not shown), in data set [2], the activation at 0.1 µM was 5 to 20% and the activation at 1 µM was above 20%. Turning to `Cc1ccc(NC(=O)c2cnc3sc(C)cn3c2=O)cc1`, the activation at 1 µM in data set [2] fell in the range of 5 to 20%. Turning to `CCC(C)c1ccc(NC(=O)c2cnc3sccn3c2=O)cc1` (stereo not shown), in data set [2], the activation at 0.1 µM is below 5% and the activation at 1 µM was above 20%.

In the case of `O=C(Nc1ccc(-c2ccco2)cc1)c1cnc2n(c1=O)CCS2`, in data set [2], the activation at 0.1 µM is 5 to 20% and the activation at 1 µM lay within 5 to 20%. For `CCOc1ccc(NC(=O)c2cnc3scc(C)n3c2=O)cc1`, in data set [2], the activation at 1 µM is 5 to 20%. Regarding `O=C(NC1CC2CCC1C2)c1cnc2n(c1=O)CCS2` (stereo not shown), in data set [2], the activation at 0.1 µM is below 5% and the activation at 1 µM was below 5%. On to `Cc1csc2ncc(C(=O)Nc3ccc4c(c3)OCO4)c(=O)n12`, for which, in data set [2], the activation at 0.1 µM is below 5% and the activation at 1 µM lay in the range of 5 to 20%.

As for `CCCCc1ccc(NC(=O)c2cnc3sc4c(n3c2=O)CCCC4)cc1`, the activation at 1 µM in data set [2] was 5 to 20%. `O=C(NCCOc1ccccc1)c1cnc2n(c1=O)CCS2`: in data set [2], the activation at 0.1 µM is below 5% and the activation at 1 µM was in the range of 5 to 20%. For the molecule `Cc1ccc(NC(=O)c2cnc3sccn3c2=O)cc1C`, in data set [2], the activation at 1 µM lay within 5 to 20%.

`COc1cccc(NC(=O)c2cnc3scc(C)n3c2=O)c1`: in data set [2], the activation at 1 µM is 5 to 20%.

Turning to `Cc1ccccc1NC(=O)c1cnc2scc(C)n2c1=O`, in data set [2], the activation at 1 µM lay in the range of 5 to 20%. On to `O=C(Nc1ccc(-c2cccs2)cc1)c1cnc2n(c1=O)CCS2`, for which, in data set [2], the activation at 0.1 µM lay within 5 to 20% and the activation at 1 µM is 5 to 20%. For `Cc1csc2ncc(C(=O)Nc3ccc(Cl)cc3)c(=O)n12`, in data set [2], the activation at 1 µM was above 20%.

Consider `Cc1cccc2ncc(C(=O)NC3CCOc4ccccc43)c(=O)n12` (stereo not shown), for which, in data set [2], the activation at 0.1 µM was below 5% and the activation at 1 µM was in the range of 5 to 20%. In the case of `CCCCc1ccc(NC(=O)c2cnc3scc(C)n3c2=O)cc1`, in data set [2], the activation at 0.1 µM was 5 to 20% and the activation at 1 µM is above 20%.

Regarding `CCOc1ccccc1NC(=O)c1cnc2scc(C)n2c1=O`, in data set [2], the activation at 1 µM fell in the range of 5 to 20%. Same read-out and setting: with `Cc1ccc(NC(=O)c2cnc3scc(C)n3c2=O)cc1Cl` the figure was 5 to 20%; with `Cc1ccc(NC(=O)c2cnc3scc(C)n3c2=O)cc1F`, 5 to 20%; with `COc1ccc(NC(=O)c2cnc3scc(C)n3c2=O)c(OC)c1`, 5 to 20%. Regarding `CCc1ccc(NC(=O)c2cnc3sccn3c2=O)cc1`, in data set [2], the activation at 0.1 µM lay in the range of 5 to 20% and the activation at 1 µM is above 20%.

`Cc1csc2ncc(C(=O)Nc3ccc(-c4cocn4)cc3)c(=O)n12`: in data set [2], the activation at 0.1 µM was below 5% and the activation at 1 µM was in the range of 5 to 20%. Consider `Cc1ccc(NC(=O)c2cnc3scc(C)n3c2=O)c(C)c1`, for which, in data set [2], the activation at 1 µM was above 20%. Consider `COc1ccc(NC(=O)c2cnc3scc(C)n3c2=O)cc1`, for which the activation at 1 µM in data set [2] was above 20%.

With `O=C(Nc1ccc(C2CCCCC2)cc1)c1cnc2n(c1=O)CCS2`, in data set [2], the activation at 0.1 µM lay in the range of 5 to 20% and the activation at 1 µM is above 20%.

For `Cc1csc2ncc(C(=O)Nc3ccc(F)cc3)c(=O)n12`, the activation at 1 µM in data set [2] was below 5%. In the case of `Cc1cccc2ncc(C(=O)NC3CC4CCC3C4)c(=O)n12` (stereo not shown), in data set [2], the activation at 0.1 µM was below 5% and the activation at 1 µM was 5 to 20%.

For the molecule `Cc1csc2ncc(C(=O)Nc3ccc(Oc4ccccc4)cc3)c(=O)n12`, in data set [2], the activation at 0.1 µM lay in the range of 5 to 20% and the activation at 1 µM was above 20%. `Cc1sc2ncc(C(=O)Nc3ccc(C(C)C)cc3)c(=O)n2c1C`: in data set [2], the activation at 1 µM is below 5%. `Cc1cc(C)cc(NC(=O)c2cnc3sccn3c2=O)c1`: in data set [2], the activation at 1 µM was 5 to 20%.

`Cc1ccc(NC(=O)c2cnc3n(c2=O)CCS3)cc1-c1ncco1`: in data set [2], the activation at 0.1 µM is below 5% and the activation at 1 µM was 5 to 20%. On to `CCCCOC(=O)c1ccc(NC(=O)c2cnc3scc(C)n3c2=O)cc1`, for which the activation at 1 µM in data set [2] is above 20%. The same measure, in the same setting: with `CCc1ccc(NC(=O)c2cnc3scc(-c4ccccc4)n3c2=O)cc1` the figure was above 20%; with `CCc1cccc(NC(=O)c2cnc3scc(C)n3c2=O)c1`, above 20%. On the same count and under the same terms, with `COC(=O)c1ccc(NC(=O)c2cnc3scc(C)n3c2=O)cc1` the figure was 5 to 20%. For `Cc1csc2ncc(C(=O)Nc3ccc(N(C)C)cc3)c(=O)n12`, in data set [2], the activation at 1 µM lay within 5 to 20%. Same read-out and setting: with `CCCCc1ccc(NC(=O)c2cnc3scc(-c4ccccc4)n3c2=O)cc1` the figure was above 20%.

In the case of `Cc1ccn2c(=O)c(C(=O)NC3CCc4ccccc4C3)cnc2c1` (stereo not shown), in data set [2], the activation at 0.1 µM was below 5% and the activation at 1 µM was in the range of 5 to 20%.

Take `O=C(Nc1ccc(-c2cocn2)cc1)c1cnc2n(c1=O)CCS2`: in data set [2], the activation at 0.1 µM was below 5% and the activation at 1 µM is below 5%. With `Cc1ccc(NC(=O)c2cnc3scc(C)n3c2=O)cc1C`, in data set [2], the activation at 1 µM is 5 to 20%. With `Cc1cccc2ncc(C(=O)NCCOc3ccccc3)c(=O)n12`, in data set [2], the activation at 0.1 µM is below 5% and the activation at 1 µM lay within 5 to 20%.
